Test results taken from patent US10370401B2, “Substituted nucleosides, nucleotides and analogs thereof” (Alios BioPharma, Inc., priority 2013, dated 2019).
pEC50, pIC50: −log10 of the molar value.

What follows are molecules tested against NS5B570-Con1 (Delta-21) (Hepatitis C virus genotype 1b, UniProt Q9WMX2) (assay: biochemical). Details: not given.
Set-up: species or system HCV
In the case of `C[C@@]1(O)[C@H](O)[C@@](CF)(CO[P@@](O)(=S)OP(=O)(O)OP(=O)(O)O)O[C@H]1n1ccc(=O)[nH]c1=O` [Compound 98], the pIC50 was 4.00 to 5.00.
In the case of `C#C[C@]1(O)[C@H](n2cnc3c(N)ncnc32)O[C@](C)(COP(=O)(O)OP(=O)(O)OP(=O)(O)O)[C@H]1O` [compound 59], the pIC50 was 5.00 to 6.00.
Molecule `C#C[C@@]1(O)[C@H](O)[C@@](CF)(COP(=O)(O)OP(=O)(O)OP(=O)(O)O)O[C@H]1n1ccc(=O)[nH]c1=O` [compound 61] has a pIC50 of over 6.00.
With `C=C[C@]1(COP(=O)(O)OP(=O)(O)OP(=O)(O)O)O[C@@H](n2ccc(=O)[nH]c2=O)C(F)(F)[C@@H]1O` [compound 72] the pIC50 was 4.00 to 5.00.
`O=c1ccn([C@@H]2O[C@](CCl)(COP(=O)(O)OP(=O)(O)OP(=O)(O)O)[C@@H](O)C2(F)F)c(=O)[nH]1` [compound 73] showed a pIC50 of 4.00 to 5.00.
Work on `C=C[C@]1(COP(=O)(O)OP(=O)(O)OP(=O)(O)O)O[C@@H](n2ccc(N)nc2=O)C(F)(F)[C@@H]1O` [compound 79] yielded a pIC50 of 4.00 to 5.00.
Work on `Nc1ccn([C@@H]2O[C@](CF)(COP(=O)(O)OP(=O)(O)OP(=O)(O)O)[C@@H](O)C2(F)F)c(=O)n1` [compound 82] yielded a pIC50 of 4.00 to 5.00.
With `C#C[C@@]1(O)[C@H](O)[C@@](CF)(COP(=O)(O)OP(=O)(O)OP(=O)(O)O)O[C@H]1n1cnc2c(N)ncnc21` [compound 93] the pIC50 was 4.00 to 5.00.
For `C#C[C@@]1(O)[C@H](O)[C@@H](COP(=O)(O)OP(=O)(O)OP(=O)(O)O)O[C@H]1n1cnc2c(=O)[nH]c(N)nc21` [compound 203], the pIC50 was over 6.00.
Molecule `C[C@@]1(Cl)[C@H](O)[C@@](CF)(COP(=O)(O)OP(=O)(O)OP(=O)(O)O)O[C@H]1n1ccc(=O)[nH]c1=O` [compound 210] has a pIC50 of 5.00 to 6.00.

Each molecule was assayed on Human rhinovirus 1B (assay: Picornavirus assay (CPE, CellTiter-Glo, HeLa-OHIO cells)). Details: Rhinovirus A, 96 h.
Assay type: cell-based
`CC(C)OC(=O)[C@H](C)NP(=O)(OC[C@@]1(F)O[C@@H](n2ccc(=O)[nH]c2=O)[C@](C)(O)[C@@H]1O)Oc1ccccc1` (stereo partly shown) [Compound 5] was tested, and the pEC50 was 4.00 to 5.00.
For `C[C@H](NP(=O)(OC[C@@]1(F)O[C@@H](n2cnc3c(=O)[nH]c(N)nc32)[C@](C)(O)[C@@H]1O)Oc1ccccc1)C(=O)OC1CCCCC1` (stereo partly shown) [Compound 7], the pEC50 was 5.00 to 6.00.
`C[C@H](NP(=O)(OC[C@@]1(F)O[C@@H](n2ccc(=O)[nH]c2=O)[C@](C)(O)[C@@H]1O)Oc1ccccc1)C(=O)OC1CCCCC1` (stereo partly shown) [Compound 8] was tested, and the pEC50 was 5.00 to 6.00.
In the case of `CCOc1nc(NC=O)nc2c1ncn2[C@@H]1O[C@](F)(COP(=O)(N[C@@H](C)C(=O)OC2CCCCC2)Oc2ccccc2)[C@@H](F)[C@@]1(C)O` (stereo partly shown) [Compound 17], the pEC50 was 4.00 to 5.00.
Work on `CCOc1nc(N)nc2c1ncn2[C@@H]1O[C@](F)(COP(=O)(N[C@@H](C)C(=O)OCC(C)(C)C)Oc2ccccc2)[C@@H](O)[C@@]1(C)O` (stereo partly shown) [Compound 33] yielded a pEC50 of over 6.00.
`CC(C)OC(=O)[C@H](C)NP(=O)(OC[C@@]1(F)O[C@@H](n2ccc(=O)[nH]c2=O)[C@](C)(O)[C@@H]1O)Oc1cccc2ccccc12` (stereo partly shown) [Compound 150] was tested, and the pEC50 was 5.00 to 6.00.
For `CC(C)OC(=O)[C@H](C)NP(=O)(OC[C@@]1(F)O[C@@H](n2ccc(=O)[nH]c2=O)[C@](C)(O)[C@@H]1O)Oc1ccc(Cl)cc1` (stereo partly shown) [Compound 152], the pEC50 was 5.00 to 6.00.
`CC(=O)O[C@H]1[C@@](C)(O)[C@H](n2ccc(=O)[nH]c2=O)O[C@]1(F)COP(=O)(N[C@@H](C)C(=O)OC(C)C)Oc1ccc(Cl)cc1` (stereo partly shown) [Compound 153] was tested, and the pEC50 was 5.00 to 6.00.

Same assay, conditions: Rhinovirus A, 96 h; Human rhinovirus 1B, HeLa-OHIO cells, 4 d at 33° C.; read-out: EC50
`CC[C@]1(CO)O[C@@H](n2ccc(N)nc2=O)C(F)(F)[C@@H]1O` [Compound 1] gave a pEC50 of 5.00 to 6.00.
`C[C@]1(F)[C@H](n2ccc(N)nc2=O)O[C@](F)(CO)[C@H]1O` [Compound 18] was tested, and the pEC50 was 4.00 to 5.00.
For `C[C@@]1(O)[C@H](O)[C@](CO)(CF)O[C@H]1n1ccc(N)nc1=O` [Compound 40], the pEC50 was 4.00 to 5.00.
Work on `COCC(COC)OC(=O)OCOP(=O)(OCOC(=O)OC(COC)COC)OC[C@@]1(CF)O[C@@H](n2ccc(=O)[nH]c2=O)[C@](C)(O)[C@@H]1O` [Compound 66] yielded a pEC50 of 4.00 to 5.00.
`Nc1ccn([C@@H]2O[C@@](CO)(CCl)[C@@H](O)C2(F)F)c(=O)n1` [Compound 69] gave a pEC50 of 5.00 to 6.00.
Work on `CCOc1nc(N)nc2c1ncn2[C@@H]1O[C@]2(F)CO[P@@](=O)(OC(C)C)O[C@H]2[C@@]1(C)F` [Compound 87] yielded a pEC50 of 5.00 to 6.00.
`CC(C)(C)C(=O)OCOP(=O)(OCOC(=O)C(C)(C)C)OC[C@@]1(F)O[C@@H](n2ccc(=O)[nH]c2=O)[C@](C)(O)[C@@H]1O` [Compound 151] was tested, and the pEC50 was over 6.00.
`CC(C)OC(=O)OCOP1(=O)OC[C@@]2(CF)O[C@@H](n3ccc(=O)[nH]c3=O)[C@](C)(O)[C@@H]2O1` (stereo partly shown) [Compound 158] gave a pEC50 of 4.00 to 5.00.
With `CC(C)OC(=O)OC(C)OP(=O)(OC[C@@]1(CF)O[C@@H](n2ccc(=O)[nH]c2=O)[C@](C)(O)[C@@H]1O)OC(C)OC(=O)OC(C)C` (stereo partly shown) [Compound 159] the pEC50 was 4.00 to 5.00.
`[N-]=[N+]=NC[C@]1(CO)O[C@@H](n2ccc(N)nc2=O)C(F)(F)[C@@H]1O` [Compound 296] showed a pEC50 of 5.00 to 6.00.
`[N-]=[N+]=NC[C@]1(CO)O[C@@H](n2ccc(N)nc2=O)[C@@H](O)[C@@H]1O` [Compound 297] gave a pEC50 of 4.00 to 5.00.

What follows are molecules tested against human rhinovirus 16 polymerase (HRV16pol) (Human rhinovirus 16, UniProt Q82122) (assay: biochemical). Details: not given.
Sequence of human rhinovirus 16 polymerase (HRV16pol) (Q82122 1694-2153 limits assumed): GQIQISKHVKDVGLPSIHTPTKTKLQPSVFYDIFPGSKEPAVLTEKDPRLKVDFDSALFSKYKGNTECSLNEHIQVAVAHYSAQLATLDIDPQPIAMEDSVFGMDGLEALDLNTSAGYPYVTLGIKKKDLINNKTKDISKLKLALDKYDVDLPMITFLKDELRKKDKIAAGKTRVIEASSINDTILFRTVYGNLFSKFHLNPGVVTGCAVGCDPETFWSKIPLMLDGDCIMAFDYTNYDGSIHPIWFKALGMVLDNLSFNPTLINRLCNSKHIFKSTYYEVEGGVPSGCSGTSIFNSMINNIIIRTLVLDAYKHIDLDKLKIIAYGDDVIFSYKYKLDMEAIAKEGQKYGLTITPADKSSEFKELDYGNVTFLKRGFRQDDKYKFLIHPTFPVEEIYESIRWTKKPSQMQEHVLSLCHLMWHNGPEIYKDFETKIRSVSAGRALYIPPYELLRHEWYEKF
In the case of `C[C@@]1(O)[C@H](O)[C@@](CF)(CO[P@](O)(=S)OP(=O)(O)OP(=O)(O)O)O[C@H]1n1ccc(=O)[nH]c1=O` [Compound 97], the pIC50 was over 5.00.

Same assay, conditions: HRV16pol, 2.5 h at 30° C., mean of several independent experiments; read-out: IC50
`C[C@]1(O)[C@H](n2ccc(=O)[nH]c2=O)O[C@](C)(COP(=O)(O)OP(=O)(O)OP(=O)(O)O)[C@H]1O` [compound 58] gave a pIC50 of over 5.00.
Work on `C#C[C@]1(O)[C@H](n2cnc3c(N)ncnc32)O[C@](C)(COP(=O)(O)OP(=O)(O)OP(=O)(O)O)[C@H]1O` [compound 59] yielded a pIC50 of over 4.00.
Work on `C#C[C@@]1(O)[C@H](O)[C@@](CF)(COP(=O)(O)OP(=O)(O)OP(=O)(O)O)O[C@H]1n1ccc(=O)[nH]c1=O` [compound 61] yielded a pIC50 of over 6.00.
With `C=C[C@]1(COP(=O)(O)OP(=O)(O)OP(=O)(O)O)O[C@@H](n2ccc(=O)[nH]c2=O)C(F)(F)[C@@H]1O` [compound 72] the pIC50 was over 4.00.
`O=c1ccn([C@@H]2O[C@](CCl)(COP(=O)(O)OP(=O)(O)OP(=O)(O)O)[C@@H](O)C2(F)F)c(=O)[nH]1` [compound 73] gave a pIC50 of over 5.00.
In the case of `C=C[C@]1(COP(=O)(O)OP(=O)(O)OP(=O)(O)O)O[C@@H](n2ccc(N)nc2=O)C(F)(F)[C@@H]1O` [compound 79], the pIC50 was over 5.00.
`Nc1ccn([C@@H]2O[C@](CF)(COP(=O)(O)OP(=O)(O)OP(=O)(O)O)[C@@H](O)C2(F)F)c(=O)n1` [compound 82] gave a pIC50 of over 6.00.
Work on `C#C[C@@]1(O)[C@H](O)[C@@](CF)(COP(=O)(O)OP(=O)(O)OP(=O)(O)O)O[C@H]1n1cnc2c(N)ncnc21` [compound 93] yielded a pIC50 of over 6.00.
Work on `[N-]=[N+]=NC[C@]1(COP(=O)(O)OP(=O)(O)OP(=O)(O)O)O[C@@H](n2ccc(N)nc2=O)[C@H](F)[C@@H]1O` [compound 107] yielded a pIC50 of over 6.00.
`Nc1ccn([C@@H]2O[C@@](COP(=O)(O)OP(=O)(O)OP(=O)(O)O)(C(F)F)[C@H](O)[C@@H]2F)c(=O)n1` [compound 168] showed a pIC50 of over 5.00.
Work on `C#C[C@@]1(O)[C@H](O)[C@@H](COP(=O)(O)OP(=O)(O)OP(=O)(O)O)O[C@H]1n1cnc2c(N)ncnc21` [compound 202] yielded a pIC50 of over 6.00.
With `C#C[C@]1(F)[C@H](n2ccc(=O)[nH]c2=O)O[C@](F)(COP(=O)(O)OP(=O)(O)OP(=O)(O)O)[C@H]1O` [compound 215] the pIC50 was over 5.00.
In the case of `N#C[C@@]1(n2ccc(=O)[nH]c2=O)O[C@](CF)(COP(=O)(O)OP(=O)(O)OP(=O)(O)O)[C@@H](O)[C@H]1O` [compound 237], the pIC50 was over 6.00.
For `N#C[C@@]1(n2ccc(N)nc2=O)O[C@](CF)(COP(=O)(O)OP(=O)(O)OP(=O)(O)O)[C@@H](O)[C@H]1O` [compound 238], the pIC50 was over 5.00.
`C#C[C@@]1(n2cnc3c(=O)[nH]c(N)nc32)O[C@H](COP(=O)(O)OP(=O)(O)OP(=O)(O)O)[C@@H](O)[C@H]1F` [compound 242] showed a pIC50 of over 5.00.
`C=C[C@@]1(O)[C@H](O)[C@@](CF)(COP(=O)(O)OP(=O)(O)OP(=O)(O)O)O[C@H]1n1ccc(=O)[nH]c1=O` [compound 251] was tested, and the pIC50 was over 5.00.
`O=c1ccn([C@@H]2O[C@](F)(COP(=O)(O)OP(=O)(O)OP(=O)(O)O)[C@@H](O)[C@]2(O)CF)c(=O)[nH]1` [compound 257] gave a pIC50 of over 5.00.
`[N-]=[N+]=NC[C@]1(COP(=O)(O)OP(=O)(O)OP(=O)(O)O)O[C@@H](n2ccc(N)nc2=O)C(F)(F)[C@@H]1O` [compound 274] was tested, and the pIC50 was over 5.00.
Molecule `[N-]=[N+]=NC[C@]1(COP(=O)(O)OP(=O)(O)OP(=O)(O)O)O[C@@H](n2ccc(N)nc2=O)[C@H](O)[C@@H]1O` [compound 275] has a pIC50 of over 5.00.
